From US20260248799A1, “COMBINATIONS OF RETINALDEHYDE DEHYDROGENASE 1 (RALDH1) INHIBITORS AND IMMUNOSTIMULATORS AND METHODS USING SAME” (The Trustees of the University of Pennsylvania, priority 2023, published 2026) come the findings set out here.

Entries after “also recorded” stand apart in the source; their conditions may differ.

The test system of data set [1] is ATPase, Na+/K+, Heart, Pig. Kind of data set: Safetyscreen: ATPase, Na+/K+. It is filed as biochemical. The note with it: 10 μM.
The target in data set [2] is T1, Cyclooxygenase COX-2 (Homo sapiens, UniProt P35354).
T1 construct: Eurofins Cerep Panlabs (contract panel)
As to the kind of experiment: Safetyscreen: COX-2. In kind it is biochemical. The note with it: read-out: % Inh. Cyclooxygenase COX-2.

Data set [3] is described as follows: Toxicity observations with Raldh1-INH. Conditions: mouse, in vivo.
Procedure: Male CD1 or C57BL/6J mice between 6 and 8 weeks old and weighing approximately 20 to 30 grams were dosed with compound 86, compound 91, and compound 99 at 2 mg/kg (IV), 10 mg/kg (PO), and 10 or 30 mg/kg (IP). The compounds were formulated using a 20% hydroxypropyl-beta-cyclodextrin (HPbCD) solution in saline, was made on the day of dosing or directly prior to dosing. Each treatment group consisted of three mice, and plasma was collected at 5 minutes, 15 minutes, 30 minutes, 1 hour, 2 hours, 4 hours, 8 hours, 12 hours, and 24 hours post-dose for IV administration and at 15 minutes, 30 minutes, 1 hour, 2 hours, 4 hours, 8 hours, 12 hours, and 24 hours post-dose for PO administration. Approximately 0.025 mL of blood was collected from the dorsal metatarsal vein at each time point. […] Plasma samples were then stored in polypropylene tubes, quickly frozen, and kept at −75° C. until analyzed by LC/MS/MS. The following pharmacokinetic parameters were measured: Terminal half-life (T½), Concentration at immediately after injection (C0), Maximum concentration (Cmax), Time to reach max concentration (Tmax), Clearance (CL), Volume of distribution (Vd), Area under the curve (AUClast), and bioavailability (% F). Animals were also monitored during the in-life phase by once daily cage side observations; any adverse clinical signs were noted as part of the PK report.
Data set [4] concerns the target T2, Muscarinic M1 (Homo sapiens, UniProt P11229).
T2 construct: Eurofins Cereps Panlabs (contract panel)
As to the kind of experiment: Safetyscreen: Muscarinic M1. It is filed as binding. Conditions: read-out: % Inh. Muscarinic M1.

Data set [5] deals with murine HCC cell line (Hepa1-6). As to the kind of experiment: AldeRed assay in Hepa1-6 cells. In kind it is cell-based, mouse. The note with it: murine HCC cell line Hepa1-6, 24 hours. The protocol:
Cultures of tumor cells or primary monocyte-derived cells were treated with C86, C91, C99, BMS 493 (Tocris, 3509) or Win 18446 (Tocris, 4736) at a time and concentration indicated in corresponding figure legends.
The AldeRed assay (EMD Millipore) was performed according to manufacturer's instructions to identify cells with ALDH activity. In brief, single-cell suspensions of Huh7, Huh1, SNU449, SNU398, HEP3B, PLC, Hepa 1-6, Hep55, and AL458A cultured cells or single-cell suspension generated from enzymatic digestion of tumors generated from transplantation of these cells in mice (as indicated in figure legends) were incubated with a fluorescent and non-toxic ALDH substrate (AldeRed 588-A); the fluorescent product accumulates in cells proportional to their ALDH activity. The amount of fluorescence produced is measured by flow cytometry. The ALDH inhibitor diethylaminobenzaldehyde (DEAB, provided with the AldeRed assay kit) was used as a negative control for background fluorescence assessment.

The target of data set [6] is T3, Opiate μ(OP3, MOP) (Homo sapiens, UniProt P35372).
T3 construct: Eurofins Cereps Panlabs (contract panel)
Kind of data set: Safetyscreen: Opiate μ. In kind it is binding. Conditions: read-out: % Inh. Opiate μ(OP3, MOP).

Data set [7] concerns the target T4, Histamine H1 (Homo sapiens, UniProt P35367).
T4 construct: purchased Eurofins Cereps Panlabs
As to the kind of experiment: Safetyscreen: Histamine H1. It is filed as binding. Conditions: read-out: % Inh. Histamine H1.

For data set [8], the target named is T5, Calcium Channel N-Type (Rattus norvegicus, UniProt Q02294).
T5 construct: purchased Eurofins Cereps Panlabs
Kind of data set: Safetyscreen: Ca channel N-type. In kind it is binding. The note with it: read-out: % Inh. Calcium Channel N-Type.

Data set [9] deals with Phosphodiesterase PDE4. Kind of data set: Safetyscreen: PDE4. It is filed as biochemical, human. The note with it: 10 μM.
Data set [10] deals with Nicotinic Acetylcholine. As to the kind of experiment: Safetyscreen: Nicotinic Acetylcholine. In kind it is binding, human. The note with it: 10 μM.
The target in data set [11] is T6, Adrenergic α1A (Rattus norvegicus, UniProt P43140).
T6 construct: Eurofins Cerep Panlabs (contract panel)
As to the kind of experiment: Safetyscreen: Adrenergic α1A. It is filed as binding. The note with it: read-out: % Inh. Adrenergic α1A.

Data set [12] has as its target T7, Cholinesterase, Acetyl, ACES (Homo sapiens, UniProt P22303).
T7 construct: Eurofins Cerep Panlabs (contract panel)
As to the kind of experiment: Safetyscreen: Acetyl cholinesterase. Conditions: read-out: % Inh. Cholinesterase, Acetyl, ACES. In kind it is biochemical.

The target of data set [13] is T8, Potassium Channel [KATP] (Cricetus cricetus, UniProt Q09427).
T8 construct: Eurofins Cereps Panlabs (contract panel)
As to the kind of experiment: Safetyscreen: Potassium Channel KATP. In kind it is binding, hamster. The note with it: read-out: % Inh. Potassium Channel [KATP].

Data set [14] relates to SNU398 cells. Kind of data set: RT-qPCR of Raldh1, Raldh2 and Raldh3 transcripts in SNU398 cells. It is filed as cell-based, human. Conditions: SNU398, 24 hours. The protocol:
FIG. 21A: Transcript levels (RT-qPCR) of Raldh1, Raldh2 and Raldh3 in SNU398 cells treated with different concentrations of C86 or C91 for 24 hours. FIG. 21B: Homology modeling identifies differences in amino acid residues between human and murine RALDH1 at sites predicted to bind RALDH1-INH. FIG. 21C: SNU398 cells were treated with various concentrations of C86 or C91 for 24 hours. Cell viability was measured by flow cytometry (FCM) with 7-AAD staining (Y-axis indicates percentage of 7-AAD negative cells).
Total RNA from mouse tissue samples and in vitro cultured cells was isolated using GenElute Mammalian Total RNA Miniprep Kit (Sigma) following the manufacturer's protocol. Total RNA from human FFPE samples was isolated by using Quick-RNA FFPE Miniprep Kit (Zymo Research) using the manufacturer's protocol. 1000 ng of RNA was used for reverse transcription using High Capacity RNA to cDNA Kit (Life Technologies). The cDNA product was 10× diluted. 2.5 μL of this cDNA was used for qPCR for each sample. Three or more replicates were used for each reaction. […] Expression fold was calculated as 2^−(CT target gene−CT housekeeping gene). Quantitative PCRs were run on a Viia 7 real time PCR system (ThermoFisher). The following target and housekeeping genes were measured using the commercially available TaqMan probes (ThermoFisher): […]
On the technique in general: Quantitative PCR measures a nucleic acid by following its amplification.

The target in data set [15] is T9, Vasopressin V1A (Homo sapiens, UniProt P37288).
T9 construct: purchased Eurofins Cereps Panlabs
As to the kind of experiment: Safetyscreen: Vasopressin V1A. In kind it is binding. The note with it: read-out: % Inh. Vasopressin V1A.

The target of data set [16] is T10, Serotonin (5-Hydroxytryptamine) 5-HT3 (Homo sapiens, UniProt P46098).
T10 construct: Eurofins Cereps Panlabs (contract panel)
Kind of data set: Safetyscreen: 5-HT3. It is filed as binding. The note with it: read-out: % Inh. Serotonin (5-Hydroxytryptamine) 5-HT3.

Data set [17] concerns the target T11, Adrenergic α2A (Homo sapiens, UniProt P08913).
T11 construct: Eurofins Cerep Panlabs (contract panel)
As to the kind of experiment: Safetyscreen: Adrenergic α2A. It is filed as binding. Conditions: read-out: % Inh. Adrenergic α2A.

T6 sequence (P43140 whole entry): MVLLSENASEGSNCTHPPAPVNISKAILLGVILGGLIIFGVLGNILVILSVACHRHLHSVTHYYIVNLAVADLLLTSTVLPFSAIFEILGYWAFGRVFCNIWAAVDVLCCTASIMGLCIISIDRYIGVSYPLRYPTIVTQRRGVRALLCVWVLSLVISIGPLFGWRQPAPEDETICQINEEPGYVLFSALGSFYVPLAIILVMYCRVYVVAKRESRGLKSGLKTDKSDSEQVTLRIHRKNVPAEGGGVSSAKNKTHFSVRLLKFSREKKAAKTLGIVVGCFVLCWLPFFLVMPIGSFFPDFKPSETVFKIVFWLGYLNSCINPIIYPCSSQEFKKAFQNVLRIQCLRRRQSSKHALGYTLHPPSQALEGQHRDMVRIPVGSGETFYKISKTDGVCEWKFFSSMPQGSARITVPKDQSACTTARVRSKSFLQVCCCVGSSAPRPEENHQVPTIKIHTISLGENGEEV
T7 sequence (P22303 32-614): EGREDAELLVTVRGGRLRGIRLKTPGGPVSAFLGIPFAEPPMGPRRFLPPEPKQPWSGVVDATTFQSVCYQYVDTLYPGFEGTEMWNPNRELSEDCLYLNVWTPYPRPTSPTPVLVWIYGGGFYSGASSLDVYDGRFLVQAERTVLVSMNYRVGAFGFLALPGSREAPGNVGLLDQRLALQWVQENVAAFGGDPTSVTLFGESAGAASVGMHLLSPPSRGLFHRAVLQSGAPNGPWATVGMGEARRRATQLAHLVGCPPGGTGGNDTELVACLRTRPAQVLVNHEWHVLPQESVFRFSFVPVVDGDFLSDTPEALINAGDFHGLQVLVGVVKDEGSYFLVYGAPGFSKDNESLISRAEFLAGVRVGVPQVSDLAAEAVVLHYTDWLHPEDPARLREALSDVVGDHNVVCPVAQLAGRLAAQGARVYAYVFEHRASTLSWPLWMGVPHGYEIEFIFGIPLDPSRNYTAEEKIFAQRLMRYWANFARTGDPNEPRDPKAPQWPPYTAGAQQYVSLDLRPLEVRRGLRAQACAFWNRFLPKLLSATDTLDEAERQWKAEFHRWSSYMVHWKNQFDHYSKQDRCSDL
T3 sequence (P35372 whole entry): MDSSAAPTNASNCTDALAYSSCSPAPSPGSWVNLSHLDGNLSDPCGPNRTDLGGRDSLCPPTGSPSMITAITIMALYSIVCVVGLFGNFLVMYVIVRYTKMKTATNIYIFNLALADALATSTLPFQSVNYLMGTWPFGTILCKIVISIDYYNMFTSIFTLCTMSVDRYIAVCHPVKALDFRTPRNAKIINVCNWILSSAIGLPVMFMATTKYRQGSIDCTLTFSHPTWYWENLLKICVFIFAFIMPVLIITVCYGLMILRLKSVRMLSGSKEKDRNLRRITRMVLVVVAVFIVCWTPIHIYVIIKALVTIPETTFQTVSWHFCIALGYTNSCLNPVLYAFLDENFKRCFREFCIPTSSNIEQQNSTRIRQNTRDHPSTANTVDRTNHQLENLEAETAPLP
T9 sequence (P37288 whole entry): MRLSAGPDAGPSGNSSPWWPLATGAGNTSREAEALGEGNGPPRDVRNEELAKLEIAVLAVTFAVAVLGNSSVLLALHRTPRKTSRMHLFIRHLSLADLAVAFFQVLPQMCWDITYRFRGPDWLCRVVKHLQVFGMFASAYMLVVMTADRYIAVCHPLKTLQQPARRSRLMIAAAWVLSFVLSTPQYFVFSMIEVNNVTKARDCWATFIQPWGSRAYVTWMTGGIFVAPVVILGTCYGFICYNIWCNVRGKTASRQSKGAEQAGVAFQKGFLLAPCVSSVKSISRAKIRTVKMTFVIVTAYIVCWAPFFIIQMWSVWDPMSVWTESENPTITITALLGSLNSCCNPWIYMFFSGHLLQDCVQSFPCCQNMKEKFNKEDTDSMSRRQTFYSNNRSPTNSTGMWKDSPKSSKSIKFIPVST
T10 sequence (P46098 24-478): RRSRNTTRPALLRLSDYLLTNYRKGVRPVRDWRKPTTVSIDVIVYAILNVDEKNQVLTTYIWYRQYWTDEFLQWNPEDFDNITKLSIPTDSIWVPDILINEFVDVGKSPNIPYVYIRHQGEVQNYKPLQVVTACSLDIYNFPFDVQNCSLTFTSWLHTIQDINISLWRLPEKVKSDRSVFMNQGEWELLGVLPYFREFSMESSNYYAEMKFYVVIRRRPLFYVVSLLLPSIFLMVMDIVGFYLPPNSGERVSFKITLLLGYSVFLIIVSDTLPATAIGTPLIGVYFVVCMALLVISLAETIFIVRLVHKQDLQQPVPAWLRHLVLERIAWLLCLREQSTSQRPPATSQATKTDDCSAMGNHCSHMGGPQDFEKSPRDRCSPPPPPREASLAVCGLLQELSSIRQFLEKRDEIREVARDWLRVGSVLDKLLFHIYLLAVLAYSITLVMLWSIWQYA
T4 sequence (P35367 whole entry): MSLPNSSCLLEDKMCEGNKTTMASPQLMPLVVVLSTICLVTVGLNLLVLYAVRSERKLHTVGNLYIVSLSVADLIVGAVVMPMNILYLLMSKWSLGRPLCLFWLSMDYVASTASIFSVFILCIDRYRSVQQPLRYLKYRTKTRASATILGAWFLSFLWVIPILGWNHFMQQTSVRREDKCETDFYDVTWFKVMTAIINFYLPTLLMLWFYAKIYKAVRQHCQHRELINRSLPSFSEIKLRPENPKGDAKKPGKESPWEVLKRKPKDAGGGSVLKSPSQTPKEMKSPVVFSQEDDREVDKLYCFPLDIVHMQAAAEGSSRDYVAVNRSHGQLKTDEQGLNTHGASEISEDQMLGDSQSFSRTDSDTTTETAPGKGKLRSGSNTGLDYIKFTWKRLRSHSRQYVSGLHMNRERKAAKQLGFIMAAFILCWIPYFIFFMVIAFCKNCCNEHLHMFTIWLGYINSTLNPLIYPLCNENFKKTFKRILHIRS
T2 sequence (P11229 whole entry): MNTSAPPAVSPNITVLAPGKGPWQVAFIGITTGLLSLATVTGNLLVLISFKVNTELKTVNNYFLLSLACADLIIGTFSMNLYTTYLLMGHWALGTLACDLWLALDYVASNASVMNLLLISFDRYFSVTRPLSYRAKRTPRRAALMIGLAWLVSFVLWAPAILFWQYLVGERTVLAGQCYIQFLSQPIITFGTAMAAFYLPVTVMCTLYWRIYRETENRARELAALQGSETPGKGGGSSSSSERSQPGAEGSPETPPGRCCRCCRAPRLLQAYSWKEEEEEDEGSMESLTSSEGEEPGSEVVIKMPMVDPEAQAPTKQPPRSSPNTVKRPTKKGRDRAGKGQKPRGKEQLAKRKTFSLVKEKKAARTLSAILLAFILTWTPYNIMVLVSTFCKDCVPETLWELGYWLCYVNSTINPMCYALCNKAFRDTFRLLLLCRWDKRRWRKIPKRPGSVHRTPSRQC
T8 sequence (Q09427 whole entry): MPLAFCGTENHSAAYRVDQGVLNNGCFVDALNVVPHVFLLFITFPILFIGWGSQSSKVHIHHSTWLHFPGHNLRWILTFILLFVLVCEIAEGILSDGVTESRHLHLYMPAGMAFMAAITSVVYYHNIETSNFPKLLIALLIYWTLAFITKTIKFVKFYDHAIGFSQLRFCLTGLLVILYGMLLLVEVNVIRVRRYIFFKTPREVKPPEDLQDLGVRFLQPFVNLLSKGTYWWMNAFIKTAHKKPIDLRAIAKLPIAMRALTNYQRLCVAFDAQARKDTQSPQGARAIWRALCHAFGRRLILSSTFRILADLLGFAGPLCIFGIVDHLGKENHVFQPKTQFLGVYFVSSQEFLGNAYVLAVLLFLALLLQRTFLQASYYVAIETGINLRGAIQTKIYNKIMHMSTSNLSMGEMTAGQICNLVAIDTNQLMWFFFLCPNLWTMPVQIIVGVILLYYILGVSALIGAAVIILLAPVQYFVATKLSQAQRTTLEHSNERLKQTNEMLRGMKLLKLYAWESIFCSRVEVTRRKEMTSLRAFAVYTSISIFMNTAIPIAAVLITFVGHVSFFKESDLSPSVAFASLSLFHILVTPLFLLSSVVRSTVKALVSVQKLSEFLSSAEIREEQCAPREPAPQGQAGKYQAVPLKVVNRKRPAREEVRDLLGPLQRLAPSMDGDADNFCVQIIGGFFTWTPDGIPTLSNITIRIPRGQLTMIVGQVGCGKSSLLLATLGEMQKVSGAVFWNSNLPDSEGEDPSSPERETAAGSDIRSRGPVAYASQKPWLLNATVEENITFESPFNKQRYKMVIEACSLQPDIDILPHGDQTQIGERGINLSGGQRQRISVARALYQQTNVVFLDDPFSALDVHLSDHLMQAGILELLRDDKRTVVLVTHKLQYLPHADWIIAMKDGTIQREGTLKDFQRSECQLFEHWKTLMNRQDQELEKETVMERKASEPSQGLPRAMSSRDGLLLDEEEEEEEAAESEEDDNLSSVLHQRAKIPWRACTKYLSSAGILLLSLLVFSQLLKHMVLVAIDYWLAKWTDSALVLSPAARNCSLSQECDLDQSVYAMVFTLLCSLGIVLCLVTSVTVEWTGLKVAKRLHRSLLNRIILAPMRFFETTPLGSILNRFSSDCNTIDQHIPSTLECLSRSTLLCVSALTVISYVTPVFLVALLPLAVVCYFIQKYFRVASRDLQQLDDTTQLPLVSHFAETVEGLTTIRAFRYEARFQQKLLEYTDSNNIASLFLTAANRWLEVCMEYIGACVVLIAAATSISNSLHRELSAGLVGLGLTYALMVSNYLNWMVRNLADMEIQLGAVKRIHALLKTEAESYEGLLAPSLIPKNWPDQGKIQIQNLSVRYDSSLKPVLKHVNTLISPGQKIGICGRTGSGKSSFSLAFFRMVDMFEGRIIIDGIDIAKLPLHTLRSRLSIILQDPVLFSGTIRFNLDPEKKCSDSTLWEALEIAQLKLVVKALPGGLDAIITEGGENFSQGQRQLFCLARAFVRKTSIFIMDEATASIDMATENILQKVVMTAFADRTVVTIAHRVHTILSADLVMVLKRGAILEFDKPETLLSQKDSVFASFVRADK

Consider `CS(=O)(=O)N1CCN(C(=O)c2cnc3ccc(F)cc3c2N2CCC(C#N)(c3ccccc3)CC2)CC1` [Compound C-86, 1-(6-fluoro-3-(4-(methylsulfonyl)piperazine-1-carbonyl)quinolin-4-yl)-4-phenylpiperidine-4-carbonitrile], for which, in data set [1], the “% Inh. ATPase, Na+/K+, Heart, Pig” value is recorded as 2%. Also, the inhibition at 10 µM stood at 0% in [2]; 3% in [4]; 19% in [6]; 13% in data set [7]; 6% in data set [8]; 6% in [11]. In addition, the inhibition at 10 µM in data set [12] was 3%; in data set [13] it was 28%; in [15], -13%; in data set [16], 2%; in data set [17] it was 0%. The signs of toxicity result in data set [3] was “no signs of toxicity have been observed”. Further, the AldeRed fluorescence entry in data set [5] is given as “no change in AldeRed fluorescence; also recorded: failed to reduce AldeRed fluorescence”. In [9], the “% Inh. Phosphodiesterase PDE4” value is on record as −7%. In addition, in [10], the “% Inh. Nicotinic Acetylcholine” value is recorded as 5%. Further, in data set [14], the “transcription of other RALDH isozymes” value was “did not lead to compensatory increases in transcription”.
